In ChEMBL document CHEMBL5608141, “Identification of compartment-specific drug sensitivities in CRC organoid-stroma co-cultures” (2024):

Experiments:
Assay type in all cases: functional, Homo sapiens
Parameters in all cases: dose or concentration left out as unconfirmed
Colon cancer organoid [1] = experiment: Identification of compartment-specific drug sensitivities in O06 CRC organoid-stroma F06 CAF co-cultures. Organoid is transduced with Lucferase2-P2A-EGFP lentivirus, fibroblast with Renilla-dsRed lentivirus. Dual-Glo Luciferase assay is used to report viability data.
Colon cancer organoid [2] = experiment: Identification of compartment-specific drug sensitivities in O14 CRC organoid-stroma F14 CAF co-cultures. Organoid is transduced with Lucferase2-P2A-EGFP lentivirus, fibroblast with Renilla-dsRed lentivirus. Dual-Glo Luciferase assay is used to report viability data.
Colon cancer organoid [3] = experiment: Identification of compartment-specific drug sensitivities in O20 CRC organoid-stroma F20 CAF co-cultures. Organoid is transduced with Lucferase2-P2A-EGFP lentivirus, fibroblast with Renilla-dsRed lentivirus. Dual-Glo Luciferase assay is used to report viability data.
[4] = Transduced with Lucferase2-P2A-EGFP lentivirus
[5] = Transduced with Renilla-dsRed lentivirus

SMILES | Cell Viability (Colon cancer organoid [1]; [4]) | Cell Viability (Colon cancer organoid [1]; [5]) | Cell Viability (Colon cancer organoid [2]; [4]) | Cell Viability (Colon cancer organoid [2]; [5]) | Cell Viability (Colon cancer organoid [3]; [4]) | Cell Viability (Colon cancer organoid [3]; [5])
COc1cc2ncn(-c3cc(OCc4ccccc4C(F)(F)F)c(C(N)=O)s3)c2cc1OC [GW843682X] | 4.781% | 182.458% | 3.29% | 110.017% | 89.1479% | 152.214%
CN1CCN(c2ccc(OC(F)(F)F)c(Nc3ncc4c(n3)-c3c(c(C(N)=O)nn3CCO)CC4)c2)CC1 [ONVANSERTIB] | 2.834% | 160.245% | 2.108% | 79.1847% | 1.999% | 184.086%
CC(=O)c1cc(-c2ccccc2OCC2CC2)c2ncccn12 | 107.249% | 181.775% | 107.478% | 95.946% | 91.2961% | 121.201%
COc1cc(-c2cn(C)c(=O)c3cnccc23)c(OC)cc1CN(C)C | 79.252% | 108.934% | 100.672% | 88.7606% | 61.6023% | 139.676%
Cn1cnc2c(F)c(Nc3ccc(Br)cc3Cl)c(C(=O)NOCCO)cc21 [SELUMETINIB] | 99.2613% | 98.6384% | 44.7701% | 55.8657% | 54.0546% | 152.417%
C=CC(=O)Nc1cccc(C(=O)Nc2ccc(Nc3cc(-c4[nH]c(SC)nc4C)ccn3)cc2)c1 | 87.3077% | 89.5907% | 116.406% | 116.909% | 175.79% | 71.728%
CCCOc1ccn2c(C(C)=O)cc(-c3cccc(OC)c3)c2c1 | 110.241% | 146.669% | 85.0656% | 86.803% | 77.121% | 110.044%
C[C@@H]1CCNC(=O)c2cc3ccc(C(=O)Nc4nc5ccccc5n4CCCN(C)C)cc3n21 | 65.6776% | 63.6239% | 75.4357% | 82.3994% | 65.8011% | 147.158%
CNC(=O)c1cc(C(=O)N[C@H]2[C@@H]3COC[C@@H]32)cc2c1O[C@H](CF)[C@H]2c1ccccc1 [GSK973] | 110.942% | 170.924% | 99.5313% | 122.198% | 97.9061% | 135.509%
COc1cc(OC)cc(-c2noc(N3CCN(C)C4(CCN(c5ccnc(C)c5)CC4)C3)n2)c1 | 121.179% | 136.172% | 96.7615% | 90.1785% | 136.59% | 146.282%
N#CN1CC[C@@H](C(=O)Nc2nc3c(s2)CN(C(=O)CN=[N+]=[N-])CC3)C1 [JYQ88] | 72.1963% | 58.5555% | 68.7487% | 88.1605% | 64.1943% | 84.2967%
FC(F)c1nc2ccccc2n1-c1nc(N2CCOCC2)nc(N2CCOCC2)n1 [ZSTK-474] | 29.4296% | 101.088% | 72.7664% | 74.8211% | 124.253% | 95.7276%
COc1ccc2c(O[C@@H]3C[C@H]4C(=O)N[C@]5(C(=O)O)CC5/C=C\CCCCC[C@H](NC(=O)OC5CCCC5)C(=O)N4C3)cc(-c3csc(NC(=O)C(C)C)n3)nc2c1C (stereo partly specified) [BI 1230] | 110.189% | 125.746% | 146.11% | 113.81% | 95.5192% | 162.279%
COc1cc(C(=O)O)ncc1C#Cc1ccccc1NS(=O)(=O)c1cccc2c(N(C)C)ccnc12 [MSC-0516] | 46.2412% | 64.6541% | 102.238% | 113.463% | 90.203% | 109.372%
O=C(NCC(=O)N1CCCC1)Nc1ccc2cnccc2c1 | 80.3687% | 124.064% | 110.898% | 98.9067% | 121.558% | 100.064%
COc1cc(Nc2nc(C)cc(-c3cnn4nc(OC)ccc34)n2)cc(C(F)(F)F)c1 | 17.5131% | 98.9895% | 120.94% | 74.993% | 136.021% | 99.6244%

SMILES | Cell Viability (Colon cancer organoid [1]; [4]) | Cell Viability (Colon cancer organoid [1]; [5]) | Cell Viability (Colon cancer organoid [2]; [4]) | Cell Viability (Colon cancer organoid [2]; [5]) | Cell Viability (Colon cancer organoid [3]; [4]) | Cell Viability (Colon cancer organoid [3]; [5])
CCC(=O)N1CCN(c2ccc(-n3c(=O)ccc4cnc5ccc(-c6cnc7ccccc7c6)cc5c43)cc2C(F)(F)F)CC1 [TORIN1] | 4.705% | 40.1911% | 10.1866% | 12.2493% | 7.451% | 44.8651%
CN(C)CC#Cc1ccc(OCCCc2sc(N3CCc4cccc(C(=O)Nc5nc6ccccc6s5)c4C3)nc2C(=O)O)c(F)c1 [A-1155463] | 0.3385% | 128.541% | 2.034% | 67.3537% | 1.1769% | 177.943%
COc1ccc2c(c1)O[C@H](c1ccc(OC)c(OC)c1)C[C@@H]2NC(=O)C1(c2ccc3c(c2)OC(F)(F)O3)CC1 [A-1596584] | 86.7173% | 88.6658% | 91.0132% | 118.771% | 73.1553% | 142.746%
COc1cc2c(cc1OCCCN1CCCC1)N=C(N)C21CCC1 | 84.9948% | 83.704% | 87.6121% | 63.8775% | 76.3645% | 100.254%
N#CC1(c2ccccn2)CCN(Cc2cc(C(=O)O)c(=O)n3ccccc23)CC1 [MSD-M1PAM] | 12.088% | 188.309% | 84.139% | 110.281% | 53.4383% | 117.537%
Nc1ncnc2c1ccn2[C@@H]1O[C@H]([C@H](O)c2ccccc2)[C@@H](O)[C@H]1O | 22.7938% | 108.338% | 25.5953% | 72.0424% | 28.7794% | 179.519%
Cc1c(NC(=O)COc2ccc(Cl)cc2C(=O)c2cc(F)cc(C(F)(F)F)c2)ccc(C(=O)O)c1F [BI 2540] | 104.073% | 125.125% | 85.0828% | 72.3222% | 66.158% | 145.555%
CCN1CCN(c2ccc(Nc3cc(N(C)C(=O)Nc4c(Cl)c(OC)cc(OC)c4Cl)ncn3)cc2)CC1 [INFIGRATINIB] | 0.6967% | 125.024% | 55.6946% | 110.833% | 101.232% | 52.242%
CC(=O)Nc1cccc(-n2c(=O)n(C3CC3)c(=O)c3c(Nc4ccc(I)cc4F)n(C)c(=O)c(C)c32)c1 [TRAMETINIB] | 4.775% | 48.8246% | 7.5472% | 16.7625% | 2.051% | 46.1337%
COc1nc2ccc([C@@](O)(c3ccccc3)C3CCN(C(C)=O)CC3)cc2c(Cl)c1Cc1ccc(-n2cccn2)cc1 [JNJ-54119936] | 97.0001% | 121.742% | 99.4009% | 84.202% | 65.101% | 118.395%
COc1ccc2c(c1)O[C@@H](c1ccc(OC)c(OC)c1)C[C@H]2NC(=O)C1(c2ccc3c(c2)OC(F)(F)O3)CC1 [A-1596586] | 95.9961% | 117.187% | 83.2966% | 94.4694% | 84.651% | 101.93%
Cc1c(N2CCNCC2)nc2ccc(Br)cc2c1C(=O)NC[C@H](CCC(=O)O)c1ccccc1Cl [BAY-403] | 78.4474% | 70.4581% | 117.744% | 98.3874% | 121.312% | 79.2483%
Cc1nc(NC(=O)N2CCC[C@H]2C(N)=O)sc1-c1ccnc(C(C)(C)C(F)(F)F)c1 [ALPELISIB] | 74.6278% | 68.5217% | 47.6603% | 61.6268% | 70.8375% | 99.8659%
CNC(=O)Nc1ccc(-c2nc(N3CC4CCC(C3)O4)c3cnn(C4CCC5(CC4)OCCO5)c3n2)cc1 | 4.885% | 48.532% | 29.4838% | 39.9364% | 5.83% | 97.6391%
COc1ncc(-c2ccc3nccc(-c4ccnnc4)c3c2)cc1NS(=O)(=O)c1ccc(F)cc1F [OMIPALISIB] | 2.362% | 34.7423% | 6.452% | 40.6761% | 2.282% | 94.8256%
